17 compounds from ChEMBL document CHEMBL1201862, “PubChem BioAssay data set” (2004) can be followed below.

Structures are written as SMILES.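 Method: 48-hour compound exposure of cells in 96-well plates, five concentrations, linear interpolation of endpoints. At the GI50, growth is halved.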 Active and inactive are the calls of the source. Rule as the data show it: active = GI50 up to about 1.1 µM and inactive = higher. Where a SMILES comes first, the peptide text is derived from it. [ ]: non-standard residue; d: D form. The star is where a group is joined. ξ: configuration not given here. ξF = NC(Cc1ccccc1)C(=O)O; Cbz = O=C(OCc1ccccc1)*; Aib = CC(C)(N)C(=O)O

Test systems include BT-549; MDA-MB-435; DLD-1; HOP-18; M19-MEL; XF498; LXFL 529; RXF 631.
Holding throughout (experiment): NCI anticancer screen, dose series, 48 h

Take `CCN(CC)C(=S)N/N=C(\C)c1cccc(C)n1`: the GI50 in the assay on BT-549 is 0.776 µM (active); in the assay on MDA-MB-435, 0.377 µM (active).

Turning to `CCC(C(C)N1CC(=O)NC(=O)C1)N1CC(=O)NC(=O)C1` (stereo not given), the GI50 is > 31.3 µM (inactive) in the assay on DLD-1, > 100 µM (inactive) with HOP-18, 41.4 µM (inactive) in the assay with M19-MEL and 14.5 µM (inactive) with XF498.

As to `CN(C)C(=S)SCc1ccccc1`, the figures for the GI50 with BT-549 and in the assay with MDA-MB-435 were 87.9 µM (inactive) and > 100 µM (inactive), respectively.

As for `C[N+](C)(N)c1nc(N)c(C#N)c(C#N)c1C#N`, the GI50 in the assay with MDA-MB-435 was > 10 µM (inactive).

`CC1C/C(=C\c2ccc(O)c(O)c2)C(=O)/C(=C/c2ccc(O)c(O)c2)C1` (stereo not given): in the assay on MDA-MB-435, the GI50 was 2.83 µM (inactive).

Take `Cc1ccccc1NC(=O)CC(=O)N1N=C(N2c3ccccc3Sc3ccccc32)CC1c1ccccc1` (stereo not given): the GI50 in the assay with DLD-1, in the assay with LXFL 529, in the assay with M19-MEL, with RXF 631 and in the assay with XF498 was > 100 µM (inactive) each time.

On to `O=C(O)C1Cc2c([nH]c3ccccc23)C=N1` (stereo not given), for which the GI50 was > 100 µM (inactive) with DLD-1, 30.3 µM (inactive) in the assay on HOP-18, > 100 µM (inactive) in the assay with M19-MEL and > 100 µM (inactive) with XF498.

In the case of `Cc1cccc2c1Sc1ccccc1C2NC(=O)CN(C)C` (stereo not given), the GI50 is > 100 µM (inactive) in the assay on LXFL 529, 47.4 µM (inactive) in the assay with M19-MEL and > 100 µM (inactive) in the assay with XF498.

With `Nc1nc(=S)[nH]c2nc3c(c(-c4ccccc4)c12)CCCC3`, the GI50 with BT-549 and in the assay with MDA-MB-435 was > 100 µM (inactive) each time.

With `COC1CCC(OS(C)(=O)=O)CO1` (stereo not given), the GI50 in the assay with LXFL 529 and with M19-MEL was > 100 µM (inactive) each time.

As to `CCSc1ncnc2c(C3OC(CO)C(O)C3O)nsc12` (stereo not given), the GI50 in the assay on MDA-MB-435 is > 100 µM (inactive).

For `O=Cc1c(Br)[nH]c2ccccc12`, the GI50 was > 100 µM (inactive) in the assay on DLD-1, 61.1 µM (inactive) in the assay with HOP-18, > 79.6 µM (inactive) in the assay with M19-MEL and > 100 µM (inactive) with XF498.

In the case of `COc1ccc(NC2=NCCO2)c2ccccc12`, the GI50 with MDA-MB-435 was > 10 µM (inactive).

In the case of `NC(=O)OCC1=C(COC(N)=O)C(=O)c2c(O)ccc(O)c2C1=O`, the GI50 was > 100 µM (inactive) with DLD-1, > 100 µM (inactive) in the assay with HOP-18, > 100 µM (inactive) in the assay with LXFL 529 and 3.46 µM (inactive) with M19-MEL.

Regarding `O=C(NCCCNC(=O)c1ccc2cc(O)c(O)cc2c1)c1ccc2cc(O)c(O)cc2c1`, the GI50 was 26.9 µM (inactive) in the assay with BT-549 and 32.4 µM (inactive) in the assay on MDA-MB-435.

`COc1ccccc1-c1cc(O)c2c(C)cc(C)nc2n1`: in the assay with BT-549, the GI50 was 96.2 µM (inactive).

Take `COC(=O)C(C)(C)NC(=O)C(Cc1ccccc1)NC(=O)C(C)(C)NC(=O)OCc1ccccc1` (stereo not given) (Cbz-[Aib]-[ξF]-[Aib]-OMe): the GI50 in the assay on MDA-MB-435 is > 100 µM (inactive).
